In US20120121679A1, “VIRICIDAL AND MICROBICIDAL COMPOSITIONS AND USES THEREOF” (University of Georgia Research Foundation, Inc., priority 2009, published 2012):

What was measured:
yeasts and molds = assay: Produce wash in a 4-L tank: yeast and mold counts; details: time not given
aerobic plate count = assay: Produce wash in a 4-L tank: aerobic plate counts (APC); details: time not given
S. typhimurium = assay: Produce wash in a 4-L tank: S. typhimurium counts on apples, celery, onions, cantaloupes
MNV-1 = details: 1,000 ppm, cited from earlier work

Molecule: acidified sodium chlorite [50 ppm acidified sodium chlorite]
- reduction of yeast and mold counts on onions (yeasts and molds): < 0.5 log CFU/onion
- reduction of APC on onions (aerobic plate count): < 0.5 log CFU/onion
- average reduction of S. typhimurium on cantaloupes (S. typhimurium; 2 min (Example 42)): 0.19 log CFU per cantaloupe
- reduction of S. typhimurium on onions (S. typhimurium; time not given): < 0.5 log CFU/onion
- average S. typhimurium count on cantaloupes (S. typhimurium; treatment time 2 min (Example 42)): 3.43 log CFU per cantaloupe

Molecule: OCl [sodium hypochlorite solution, sodium hypochlorite]
- reduction in MNV-1 infectivity (MNV-1; food residuals present on the surfaces): minimal reductions in MNV-1 infectivity
- reduction of viable MNV-1 (MNV-1; viruses dried on stainless steel surfaces without food residuals): > 4 log Most Probable Number (MPN)/ml
